The test system of series [1] is heterosexual men suffering from primary premature ejaculation. The experiment in a line: Double-blind randomized crossover study of orally administered active agents in treating premature ejaculation (efficacy measures). The conditions noted are these: for comparison between treatments in ejaculation latency time and sexual satisfaction score, in words: Wilcoxon signed rank test; for IVELT, Range / Anxiety score, Range: after four-week as-needed oral treatment; for IVELT, Range: baseline range 0.5-1.5; for Anxiety score, Range: baseline range 5-25; for Anxiety score, Median / Sexual satisfaction score, Median / Sexual satisfaction score, Range: after four-week treatment; for Anxiety score, Median: oral, as needed 3 to 5 hours before intercourse, clomipramine 25 mg, sertraline 50 mg, paroxetine 20 mg, sildenafil citrate 50 mg, baseline median 12; for median intravaginal ejaculation latency time: after four-week treatments, pretreatment median 1 minutes, all P<0.0001; for Sexual satisfaction score, Median / Sexual satisfaction score, Range: first nine items of EDITS questionnaire; for Sexual satisfaction score, Median: higher scores = greater satisfaction; for IVELT, Median: intravaginal ejaculation latency time after four-week as-needed oral treatment, baseline median 1; for delay of intravaginal ejaculation latency time, in words: treatment on an as needed basis; for IVELT during washout periods, Median / IVELT during washout periods, Range: two-week washout period after the treatment. In kind it is in vivo. Details: Anxiety score, Median: scale not given here. As for the experimental part:
(§1) A double-blind randomized crossover study was performed with 31 heterosexual men suffering from primary premature ejaculation, defined for the purpose of the study as an intravaginal ejaculation latency time (IVELT) of less than 2 minutes. Exclusion criteria included the following: (a) history of a psychiatric disorder; (b) current physical illness; (c) previous surgery or drug therapy with an active agent known to affect sexual function; (d) current substance abuse; (e) patients with secondary premature ejaculation combined with erectile dysfunction. All patients were asked not to use condoms or topical penile applications.
(§2) Treatment phases comprised five four-week consecutive treatment periods, each separated by a two-week washout period. […] The patients were randomly assigned to receive clomipramine hydrocloride (25 mg), sertraline hydrochloride (50 mg), paroxetine hydrochloride (20 mg), or sildenafil citrate (50 mg), or instructed to use the pause-squeeze technique developed by Masters and Johnson (Masters and Johnson, Human Sexual Inadequacy, Little, Brown & Company, Boston, Mass., 1970). The drugs were administered as needed 3 to 5 hours before planned intercourse and not more than twice a week. The pause-squeeze technique was used during intercourse. Each patient was randomly assigned to receive any of the available treatments as the first treatment and a sequence of treatment regimens. The assignment was unknown by the patient. Subjects were asked to complete a questionnaire regarding intravaginal ejaculation latency time of the last two consecutive experiences of intercourse, frequency of intercourse and possible side effects. The first nine items of the sexual satisfaction questionnaire designed by Althof et al. (Althof et al.(1999), “EDITS: Development of Questionnaires for Evaluating Satisfaction with Treatment for Erectile Dysfunction,” Urology 53:[…]) was used to measure the degree of sexual satisfaction, with higher scores indicating greater satisfaction. All measurements were obtained before treatment, after each treatment and after each washout period. Twenty healthy men who reported a sexual history free of symptoms of premature ejaculation served as a control group.
(§3) Statistical analysis: The variables in this study were statistically processed using the SPSS program for MicroSoft Windows®, standard version, release 8.0. The data were subjected to the Kolmogorov-Smirnov one-sample test, to test for normal distribution. […] Nonparametric statistical tests were used to assess differences in the measurements. Friedman's two-way analysis of variance was used for comparison between all the treatment periods. Wilcoxon signed rank test was used for evaluation of measures between baseline and after each treatment and also between every two treatment periods. The relationship between parameters was quantified by using the Spearman rank correlation coefficient. Chi-square and Fisher exact tests were used for comparison of the incidence of side effects among different treatments. Student's t-test and Chi-square test were used for comparison between the study group and control group. A two-tailed P-value <0.05 was considered significant.

Series [2] has the same test system. The conditions noted are these: male, human, in vivo, 4 weeks; for No. patients with side effects / patients with side effects (%): po. As for the experimental part:
as §1, §2, §3

SMILES strings stand for the structures.

Four compounds from patent US6403597B1, “Administration of phosphodiesterase inhibitors for the treatment of premature ejaculation” (Vivus, Inc., priority 1997, dated 2002) can be followed below.

For the compound `CN(C)CCCN1c2ccccc2CCc2ccc(Cl)cc21` [Clomipramine, clomipramine], in series [1], the “comparison between treatments in ejaculation latency time and sexual satisfaction score, in words” value (shortened to “comparison between treatments”) is on record as “more or less equivalent to each other”; the “IVELT, Range” value is listed as “(1-8) min”; the “Anxiety score, Range” value is “(4-22)”; the “Anxiety score, Median” value is given as 11. Further, in series [1], the “median intravaginal ejaculation latency time” value amounted to 4 min; the “Sexual satisfaction score, Median” value was 11; the “Sexual satisfaction score, Range” value was “(0-25)”; the “IVELT, Median” value was 4 min. In series [1], the “delay of intravaginal ejaculation latency time, in words” value (from here on “delay”) was “statistically significant and clinically relevant delay”; the “IVELT during washout periods, Median” value amounted to 1 min; the “IVELT during washout periods, Range” value is “(0.5-1.5) min”. Moreover, in series [1] (of 31 men), the “patients with prolongation of IVELT (%)” value worked out at 71%. Also, in series [2], the “Side effects (no.): drowsiness” value is 1, the “Side effects (no.): dry mouth” value is 3, the “Side effects (no.): nausea” value was 1 and the “Side effects (no.): sleepiness” value stood at 2. For the same compound, in series [2], the “No. patients with side effects” value came out at 7 and the “patients with side effects (%)” value was determined as 25%.
`Fc1ccc([C@@H]2CCNC[C@H]2COc2ccc3c(c2)OCO3)cc1` [Paroxetine, paroxetine]: in series [1], the “comparison between treatments” value is “superior to the pause-squeeze technique”; the “IVELT, Range” value is “(2-10) min”; the “Anxiety score, Range” value is on record as “(5-23)”; the “Anxiety score, Median” value was 9. In series [1], the “median intravaginal ejaculation latency time” value is 4 min; the “Sexual satisfaction score, Median” value was 12; the “Sexual satisfaction score, Range” value is “(0-29)”; the “IVELT, Median” value came to 4 min. Also, in series [1], the “delay” value was “statistically significant and clinically relevant delay”; the “IVELT during washout periods, Median” value is given as 1 min; the “IVELT during washout periods, Range” value is “(0.5-2) min”. Besides, the “comparison between treatments” value in series [1] (listed as paroxetine) is reported as “more or less equivalent to each other”. In series [1] (of 31 men), the “patients with prolongation of IVELT (%)” value is 80.6%. Further, in series [2], the “Side effects (no.): dry mouth” value is recorded as 2, the “Side effects (no.): nausea” value is given as 1, the “Side effects (no.): yawning” value came to 2 and the “No. patients with side effects” value was 5. Also, the “patients with side effects (%)” value in series [2] came out at 17.2%.
In the case of `CN[C@H]1CC[C@@H](c2ccc(Cl)c(Cl)c2)c2ccccc21` [Sertraline, sertraline], in series [1], the “comparison between treatments” value was “more or less equivalent to each other”; the “IVELT, Range” value is given as “(1-10) min”; the “Anxiety score, Range” value is recorded as “(5-22)”; the “Anxiety score, Median” value is 11. Moreover, in series [1], the “median intravaginal ejaculation latency time” value worked out at 3 min; the “Sexual satisfaction score, Median” value came out at 10; the “Sexual satisfaction score, Range” value is “(0-31)”; the “IVELT, Median” value was determined as 3 min. In addition, in series [1], the “delay” value is “statistically significant and clinically relevant delay”; the “IVELT during washout periods, Median” value is 1 min; the “IVELT during washout periods, Range” value is reported as “(0.5-2) min”. Also, the “patients with prolongation of IVELT (%)” value in series [1] (of 31 men) was 71.2%. Besides, in series [2], the “Side effects (no.): anorexia” value came to 1, the “Side effects (no.): drowsiness” value is reported as 1, the “Side effects (no.): nausea” value worked out at 1 and the “No. patients with side effects” value was found to be 3. Besides, the “patients with side effects (%)” value in series [2] is on record as 10.3%.
As to `CCCc1nn(C)c2c(=O)[nH]c(-c3cc(S(=O)(=O)N4CCN(C)CC4)ccc3OCC)nc12` [Sildenafil, 5-[2-ethoxy-5-(4-methyl-1-piperazinylsulphonyl)phenyl]-1-methyl-3-n-propyl-1,6-dihydro-7H-pyrazolo[4,3-dipyrimidin-7-one]], in series [1], the “IVELT, Range” value is recorded as “(5-30) min”; the “Anxiety score, Range” value was “(4-15)”; the “Anxiety score, Median” value was found to be 8; the “median intravaginal ejaculation latency time” value came to 15 min. In addition, in series [1], the “Sexual satisfaction score, Median” value came out at 30; the “Sexual satisfaction score, Range” value is “(17-34)”; the “IVELT, Median” value worked out at 15 min; the “delay” value was “statistically significant and clinically relevant delay”. Also, in series [1], the “IVELT during washout periods, Median” value came to 1.75 min and the “IVELT during washout periods, Range” value is “(0.5-8) min”. In addition, the “median IVELT, median sexual satisfaction score and median IVELT during the washout period, according to Friedman's test, in words” value in series [1] (comparison between all treatment periods) was “significant increase”. The “effectiveness in the treatment of premature ejaculation, in words” value in series [1] (in vivo) is recorded as “highly effective”. Also, in series [1] (of 31 men), the “patients with prolongation of IVELT (%)” value is on record as “over 90%” and the “patients with prolongation of IVELT (number of patients)” value was 28 patients. The “patients with prolongation of IVELT (%)” value in series [1] (of 31 men, listed as sildenafil) turned out to be 90.3%. The “factor by which IVELT was increased, on average” value in series [1] (versus pretreatment) stood at 15. In addition, in series [2], the “Side effects (no.): flushing” value came to 2, the “Side effects (no.): headache” value is on record as 2, the “Side effects (no.): nasal congestion” value is 1 and the “No. patients with side effects” value was determined as 5. For the same compound, in series [2], the “patients with side effects (%)” value was determined as 17.9%.
